Tested on: H1 human embryonic stem cells
Assay: Step-wise differentiation, high content analysis of SOX17, PDX1, CDX2, insulin, glucagon (Example 12)
Type: cell-based
Experimental: The assay was initiated by aspirating the culture medium from each well and adding back an aliquot (0.5 ml) of test medium. Test conditions for the first step of differentiation were conducted over a three-day period, feeding daily by aspirating and replacing the medium from each well with fresh test medium. On the first day of assay, 100 ng/ml activin A (PeproTech; Cat #120-14) or 200 ng/ml GDF-8 (R&D Systems, Cat #788-G8) was added to respective assay wells where each growth factor was diluted into RPMI-1640 medium (Invitrogen; Cat #22400) with 1% Albumin Bovine Fraction V, Fatty Acid Free (FAF BSA) (MP Biomedicals, Inc; Cat 152401), 1% Probumin (Millipore; Cat #81-068-3) and 20 ng/ml Wnt3a (R&D Systems; Cat #1324-WN/CF). On the second day of assay, 100 ng/ml activin A or 200 ng/ml GDF-8 was diluted into RPMI-1640 medium supplemented with 2% FAF BSA without Wnt3a. In some test samples using GDF-8, Wnt3a was replaced with a either Compound 34 or Compound 56 at a concentration of 2.5 μM, and either Compound 34 or Compound 56 was added daily during all three days of definitive endoderm differentiation. At the conclusion of the first step of differentiation, cells from some wells were harvested for flow cytometry analysis to evaluate levels of CXCR4, a marker of definitive endoderm formation. […]

GDF-8: growth factor GDF-8, also known as myostatin, member of the TGF-β family
normalized protein levels of insulin and glucagon after step 5 (GDF-8 versus activin A treatment groups in step 1): equivalent expression between the Activin A and GDF-8 treatment groups | normalized Pdx1 and Cdx2 protein expression after step 3 (GDF-8 with Wnt3a or with a compound in step 1): equivalent levels of PDX1 and CDX2

Reference: patent publication US9593305B2, “Differentiation of pluripotent stem cells” (Janssen Biotech, Inc., priority 2008, dated 2017)
